According to paper PMC10143822, “Structural Adaptation of the Single-Stranded DNA-Binding Protein C-Terminal to DNA Metabolizing Partners Guides Inhibitor Design” (Pharmaceutics, 2023):
Where a SMILES comes first, the peptide text is derived from it. Where no end group is shown, it is not given here. [ ]: non-standard residue; d: D form. Phe(4-CF3) = N[C@@H](Cc1ccc(C(F)(F)F)cc1)C(=O)O; Phe(3-Cl) = N[C@@H](Cc1cccc(Cl)c1)C(=O)O; Phe(4-Cl) = N[C@@H](Cc1ccc(Cl)cc1)C(=O)O; Phe(4-F) = N[C@@H](Cc1ccc(F)cc1)C(=O)O; NMeF = CN[C@@H](Cc1ccccc1)C(=O)O; 3Pal = N[C@@H](Cc1cccnc1)C(=O)O; β3hF = N[C@H](CC(=O)O)Cc1ccccc1; NMeD = CN[C@@H](CC(=O)O)C(=O)O; β3hD = NC(CC(=O)O)CC(=O)O

Tests used:
RecO = target: T1, RecO (Escherichia coli, UniProt P0A7H3); assay: biochemical; type: binding; details: 0.5 μM RecO, 50 nM F-wtSSB tracer, 0–500 μM unlabeled peptide, 30 min room temperature; 20 mM Tris-HCl pH 8.0, 200 mM NaCl, 10% glycerol, 0.01% Triton-X 100; 25 °C; triplicate; read-out: IC50 on RecO, competitive fluorescence anisotropy
T1 construct: His-tag (TEV site) (N, cleaved yes); made in house; host or cells: E. coli Rosetta cells
Procedure: (§1) Triplicate measurements were performed using a Clariostar Plus Microplate Reader in 384-well plates for all fluorescence anisotropy (FA) experiments. The settings were 25 °C, excitation at 485 nm, emission at 510 nm, settling time of 0.2 s, and 200 flashes per well.
(§2) Competition fluorescence anisotropy experiments were carried out as follows: protein (0.5 μM either ExoI or RecO) was incubated with 50 nM F-wtSSB peptide and 0–500 μM unlabeled wtSSB (or a variant) peptide for 30 min at room temperature. For direct fluorescence anisotropy measurements, 16 µM ExoI and 7.5 µM RecO were used in the first well. After serial dilution, either 50 nM of F-mSSB or F-sSSB was added to the wells and then incubated for 30 min. Buffers used included 20 mM Tris-HCl (pH 8.0), 100 mM NaCl, 1 mM MgCl2, 1 mM 2-mercaptoethanol, 10% (v/v) glycerol, for ExoI and 20 mM Tris-HCl (pH 8.0), 200 mM NaCl, 1 mM 2-mercaptoethanol, 10% (v/v) glycerol, and 0.01% Triton-X 100 for RecO [37].
(§3) Fluorescence anisotropy values were normalized and are shown as bound fractions (BF, %). BF=r−rmin/λ(rmax−r)+r−rmin, I=2∗PG+S, r=S−PG/I, where r: anisotropy, I: total intensity, P: perpendicular intensity, S: parallel intensity, G: an instrument factor set to 1, BF: ligand fraction bound, and λ=λbound/λunbound=1 .
(§4) Competitive fluorescence anisotropy was analyzed in Origin Pro 9.5, and IC50 values were determined using the Logistic Nonlinear fit function and are shown as plots for each mutated position for each protein in Figures S4 and S6. EC50 values from direct fluorescence anisotropy titrations were plotted in Origin 9.5. Values were determined using the Logistics Nonlinear fit function.

ExoI = target: T2, ExoI (Escherichia coli, UniProt P04995); assay: biochemical; type: binding, E. coli
T2 construct: His-tag (cleaved yes); host or cells: E. coli BL21 (DE3) pLysS
Procedure: as §1, §2, §3, §4

T2 sequence (P04995 whole entry): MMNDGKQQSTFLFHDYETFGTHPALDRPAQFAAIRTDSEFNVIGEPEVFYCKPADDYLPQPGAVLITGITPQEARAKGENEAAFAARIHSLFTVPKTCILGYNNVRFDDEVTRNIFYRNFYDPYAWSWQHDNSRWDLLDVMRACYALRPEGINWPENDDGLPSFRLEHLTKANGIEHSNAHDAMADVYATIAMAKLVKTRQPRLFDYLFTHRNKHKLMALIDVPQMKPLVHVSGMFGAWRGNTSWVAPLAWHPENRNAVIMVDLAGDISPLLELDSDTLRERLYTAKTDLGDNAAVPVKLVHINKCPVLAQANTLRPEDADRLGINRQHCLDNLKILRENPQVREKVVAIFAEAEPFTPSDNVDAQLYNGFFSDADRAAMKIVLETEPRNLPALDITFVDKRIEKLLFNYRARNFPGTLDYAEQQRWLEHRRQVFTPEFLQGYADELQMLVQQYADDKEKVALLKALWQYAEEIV
T1 sequence (P0A7H3 whole entry): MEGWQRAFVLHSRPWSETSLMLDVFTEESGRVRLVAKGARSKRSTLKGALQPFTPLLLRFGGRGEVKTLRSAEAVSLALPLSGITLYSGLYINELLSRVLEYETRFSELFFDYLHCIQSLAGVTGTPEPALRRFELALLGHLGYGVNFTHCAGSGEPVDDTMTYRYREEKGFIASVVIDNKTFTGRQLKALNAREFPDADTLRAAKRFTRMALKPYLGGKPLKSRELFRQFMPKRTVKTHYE

Compound	IC50 (RecO) [µM]	IC50 (ExoI) [µM]
CC[C@H](C)[C@H](NC(=O)[C@H](CC(=O)O)NC(=O)[C@H](CC(=O)O)NC(=O)[C@H](CC(=O)O)NC(=O)[C@H](Cc1ccc(C(F)(F)F)cc1)NC(=O)[C@H](CC(=O)O)NC(C)=O)C(=O)N1CCC[C@H]1C(=O)N[C@@H](Cc1ccccc1)C(=O)O [4-CF3-Phe2] (Ac-D[Phe(4-CF3)]DDDIPF-OH)	3.27 ± 0.42	–
CC[C@H](C)[C@H](NC(=O)[C@H](CC(=O)O)N(C)C(=O)[C@H](CC(=O)O)NC(=O)[C@H](CC(=O)O)NC(=O)[C@H](Cc1ccccc1)NC(=O)[C@H](CC(=O)O)NC(C)=O)C(=O)N1CCC[C@H]1C(=O)N[C@@H](Cc1ccccc1)C(=O)O [NM-Asp5] (Ac-DFDD[NMeD]IPF-OH)	9.33 ± 4.3	9.3 ± 0.66
CC[C@H](C)[C@H](NC(=O)[C@H](CC(=O)O)NC(=O)[C@H](CC(=O)O)NC(=O)[C@H](CC(=O)O)NC(=O)[C@H](Cc1cccc(Cl)c1)NC(=O)[C@H](CC(=O)O)NC(C)=O)C(=O)N1CCC[C@H]1C(=O)N[C@@H](Cc1ccccc1)C(=O)O [3-Cl-Phe2] (Ac-D[Phe(3-Cl)]DDDIPF-OH)	3.44 ± 0.14	2.03 ± 0.51
CC[C@H](C)[C@H](NC(=O)[C@H](CC(=O)O)NC(=O)[C@H](CC(=O)O)NC(=O)[C@H](CC(=O)O)NC(=O)C[C@H](Cc1ccccc1)NC(=O)[C@H](CC(=O)O)NC(C)=O)C(=O)N1CCC[C@H]1C(=O)N[C@@H](Cc1ccccc1)C(=O)O [β3-Phe2] (Ac-D[β3hF]DDDIPF-OH)	3.66 ± 0.61	3.8 ± 0.11
CC[C@H](C)[C@H](NC(=O)[C@H](CC(=O)O)NC(=O)[C@H](CC(=O)O)NC(=O)[C@H](CC(=O)O)NC(=O)[C@H](Cc1cccnc1)NC(=O)[C@H](CC(=O)O)NC(C)=O)C(=O)N1CCC[C@H]1C(=O)N[C@@H](Cc1ccccc1)C(=O)O [3Pal2] (Ac-D[3Pal]DDDIPF-OH)	11.7 ± 0.8	7.47 ± 0.88
CC[C@@H](C)[C@@H](NC(=O)[C@H](CC(=O)O)NC(=O)[C@H](CC(=O)O)NC(=O)[C@H](CC(=O)O)NC(=O)[C@H](Cc1ccccc1)NC(=O)[C@H](CC(=O)O)NC(C)=O)C(=O)N1CCC[C@H]1C(=O)N[C@@H](Cc1ccccc1)C(=O)O [D-Ile6] (Ac-DFDDD[dI]PF-OH)	–	56 ± 18.4
CC[C@H](C)[C@H](NC(=O)[C@H](CC(=O)O)NC(=O)[C@H](CC(=O)O)NC(=O)[C@@H](CC(=O)O)NC(=O)[C@H](Cc1ccccc1)NC(=O)[C@H](CC(=O)O)NC(C)=O)C(=O)N1CCC[C@H]1C(=O)N[C@@H](Cc1ccccc1)C(=O)O [D-Asp3] (Ac-DF[dD]DDIPF-OH)	4.56 ± 1.53	6.82 ± 0.53
CC[C@H](C)[C@H](NC(=O)[C@H](CC(=O)O)NC(=O)[C@H](CC(=O)O)NC(=O)[C@H](CC(=O)O)NC(=O)[C@H](Cc1ccc(Cl)cc1)NC(=O)[C@H](CC(=O)O)NC(C)=O)C(=O)N1CCC[C@H]1C(=O)N[C@@H](Cc1ccccc1)C(=O)O [4-Cl-Phe2] (Ac-D[Phe(4-Cl)]DDDIPF-OH)	2.38 ± 0.27	–
CC[C@H](C)[C@H](NC(=O)[C@H](CC(=O)O)NC(=O)C[C@H](CC(=O)O)NC(=O)[C@H](CC(=O)O)NC(=O)[C@H](Cc1ccccc1)NC(=O)[C@H](CC(=O)O)NC(C)=O)C(=O)N1CCC[C@H]1C(=O)N[C@@H](Cc1ccccc1)C(=O)O [β3-Asp4] (Ac-DFD[β3hD]DIPF-OH)	19.6 ± 2.78	1.54 ± 0.13
CC[C@H](C)[C@H](NC(=O)[C@H](CC(=O)O)NC(=O)[C@H](CC(=O)O)NC(=O)[C@H](CC(=O)O)NC(=O)[C@H](Cc1ccccc1)NC(=O)[C@H](CC(=O)O)NC(C)=O)C(=O)N1CCC[C@H]1C(=O)N(C)[C@@H](Cc1ccccc1)C(=O)O [NM-Phe8] (Ac-DFDDDIP[NMeF]-OH)	64.7 ± 18.9	–
CC[C@H](C)[C@H](NC(=O)[C@H](CC(=O)O)NC(=O)[C@H](CC(=O)O)N(C)C(=O)[C@H](CC(=O)O)NC(=O)[C@H](Cc1ccccc1)NC(=O)[C@H](CC(=O)O)NC(C)=O)C(=O)N1CCC[C@H]1C(=O)N[C@@H](Cc1ccccc1)C(=O)O [NM-Asp4] (Ac-DFD[NMeD]DIPF-OH)	3.85 ± 1.03	1.27 ± 0.14
CC[C@H](C)[C@H](NC(=O)[C@H](CC(=O)O)NC(=O)[C@H](CC(=O)O)NC(=O)[C@H](CC(=O)O)NC(=O)[C@H](Cc1ccc(F)cc1)NC(=O)[C@H](CC(=O)O)NC(C)=O)C(=O)N1CCC[C@H]1C(=O)N[C@@H](Cc1ccccc1)C(=O)O [4-F-Phe2] (Ac-D[Phe(4-F)]DDDIPF-OH)	3.05 ± 0.28	–
Ac-EFDDDIPF [Glu1]	5.17 ± 1.1	1.33 ± 0.09
